The NIST ThermoML archive (doi:10.1016/j.fluid.2004.10.027)
Numbers after ± are expanded uncertainties.

Assays:
[1] = refractive index (Na D-line) (dimensionless); settings: 298.15 K; 101.33 kPa; Liquid; Standard Abbe refractometry
[2] = Liquid; for mass density: 298.15 K, 101.33 kPa

refractive index [1]	mass density [2]	SMILES	also measured
1.451 ± 0.0007	945.1 ± 1.1 kg/m3	O=C1CCCCC1 [cyclohexanone]	vapor or sublimation pressure ([2]; 426.45 K): 95.8 ± 4.8 kPa
1.3781 ± 0.0007	863.7 ± 1.8 kg/m3	COCCOC [1,2-dimethoxyethane]	vapor or sublimation pressure ([2]; 357.05 K): 95.8 ± 4.8 kPa
1.4097 ± 0.0007	726.4 ± 2.9 kg/m3	CCCCCCCCCC [decane]	vapor or sublimation pressure ([2]; 445.25 K): 95.8 ± 4.9 kPa
1.4072 ± 0.0007	889.2 ± 4.7 kg/m3	C1CCOC1 [tetrahydrofuran]	vapor or sublimation pressure ([2]; 337.55 K): 95.8 ± 4.8 kPa

SMILES	refractive index [1]	mass density [2]	also measured
Cc1cccc(C)c1 [1,3-dimethylbenzene]	1.4946 ± 0.0007	860.1 ± 1.8 kg/m3	vapor or sublimation pressure ([2]; 410.35 K): 95.8 ± 4.8 kPa
Cc1ccc(C)cc1 [1,4-dimethylbenzene]	1.4933 ± 0.0007	865.6 ± 4.7 kg/m3	vapor or sublimation pressure ([2]; 409.35 K): 95.8 ± 4.8 kPa
Cc1ccccc1C [1,2-dimethylbenzene]	1.503 ± 0.0007	875.9 ± 1.7 kg/m3	vapor or sublimation pressure ([2]; 415.55 K): 95.8 ± 4.8 kPa
